{
  "source": "patent US20200316156A1",
  "about": "“NASAL BALM FOR RELIEVING ALLERGIC RHINITIS SYMPTOMS” (priority 2019, published 2020)",
  "test_system": "allergic rhinitis of BALB/c mice",
  "assay": "OVA-induced allergic rhinitis in BALB/c mice, sneeze number",
  "assay_type": "in vivo",
  "conditions": "for Sneeze number, individual mouse: within 15 min after administration, mice No. 1-4, hydrochloride",
  "experimental": "1. Experimental objective: to study the effect of the nasal balm of the disclosure on the allergic rhinitis of BALB/c mice.\n2 mg of OVA powder was weighed, dissolved with physiologic saline solution. The final volume was calibrated accurately to 14 mL. 3.5 mL of the OVA solution was pipetted into a 5 mL Eppendorf tube, followed by the addition of 0.5 mL of uniform aluminum hydroxide gel, and then the OVA solution was dropwise added. The mixture was shaken for 30 min, and then 0.2 mL of the resulting solution was injected to each mouse to induce the sensitization.\n2 mg of OVA powder was weighed, dissolved with physiologic saline solution. The final volume was calibrated accurately to 14 mL.\nThe mice were quarantined, adaptively fed, and divided into four groups: normal group, model group, positive control group and test group. Each group had 4 mice labeled as No. 1, No. 2, No. 3 and No. 4, respectively. The rest two mice were as backup.\nThe model group, positive control group and test group were administered with OVA solution through abdominal cavity to induce sensitization. Each mouse was administered with 0.2 mL of OVA solution containing 25 μg of OVA and 1 mg of aluminum hydroxide. Normal group as a control was injected with physiological saline solution at a dosage of 0.2 mL per mouse, where the first injection was labeled as D0, and the second injection and the third injection were performed on D7 and D14, respectively.\nAfter induction, the drugs were administrated to initiate sensitization. The test product was smeared on the noses of the mice in normal group 6 times each day. After application of the test product each day, 20 μL of physiological saline solution was dripped into the nasal cavity of the mice in normal group as a control, at a dosage of 10 μL per nostril. The physiological saline solution was smeared on the nose of the mice in model group 6 times each day. 5 μL of Levocabastine was dripped into the nasal cavity of the mice in positive control group 2 times each day, at a dosage of 2.5 μL per nostril. The test product was smeared on the noses of the mice in test group 6 times each day. After administration of the drugs each day, 20 μL of the OVA solution for sensitization was dripped into the nasal cavity of the mice in model group, positive control group and test group, respectively, at a dosage of 10 μL per nostril.\nDaily administration was continued for 10 days from D20-D30. On D23, D27 and D30 (that is, the 3rd day, 7th day and 10th day after administration), the number of times mice sneezed in each group within 15 min after administration was counted.\nUnpaired two-tailed t-test was used to analyze data for each group.",
  "note": "Values joined by “and” are separate entries in the source; they are usually repeats but may differ in a detail not shown here. Equal values may be shown once. Where a name gives a salt, the structure may show the parent alone.",
  "data": [
    {"molecule": "C[C@@H]1CN([C@H]2CC[C@](C#N)(c3ccc(F)cc3)CC2)CC[C@]1(C(=O)O)c1ccccc1", "note": "[Levocabastine, Levocabastine hydrochloride]", "values": [
      {"measurement": "Sneeze number compared with the model group", "setting": "3rd day of administration", "value": "decreased significantly"},
      {"measurement": "Sneeze number compared with the model group", "setting": "7th day of administration", "value": "no significant difference"},
      {"measurement": "Sneeze number compared with the model group", "setting": "10th day of administration", "value": "no significant difference"},
      {"measurement": "Sneeze number, individual mouse", "setting": "D23 (3rd day of administration)", "value": "7 and 15 and 8 and 11"},
      {"measurement": "Sneeze number of mice, statistical data", "setting": "D23, group of 4 mice, model group 22.75 ± 1.50", "value": "10.25 ± 3.59"},
      {"measurement": "Sneeze number, individual mouse", "setting": "D27 (7th day of administration)", "value": "75 and 45 and 44 and 22"},
      {"measurement": "Sneeze number of mice, statistical data", "setting": "D27, group of 4 mice, model group 69.75 ± 17.08", "value": "46.50 ± 21.76"},
      {"measurement": "Sneeze number, individual mouse", "setting": "D30 (10th day of administration)", "value": "124 and 108 and 46 and 110"},
      {"measurement": "Sneeze number of mice, statistical data", "setting": "D30, group of 4 mice, model group 100.25 ± 14.13", "value": "97.00 ± 34.74"}
    ]}
  ]
}
